According to PMC7026418, “The kinase polypharmacology landscape of clinical PARP inhibitors” (Scientific Reports, 2020):
Where two headings read alike, the source gives them in different places.

Experiments:
Test in all cases: biochemical
Set-up in all cases: DiscoveRx KINOMEscan active site-directed competition binding; percent of control kinase bound to immobilised ligand
AKT3 = AKT3 (Homo sapiens, UniProt Q9Y243)
CIT = CIT (Homo sapiens, UniProt O14578)
DDR1 = DDR1 (Homo sapiens, UniProt Q08345)
EGFR(S752-I759del) = EGFR(S752-I759del) (Homo sapiens, UniProt P00533, DEL752-759)
LKB1 = molecular target: T1, LKB1 (Homo sapiens, UniProt Q15831)
T1 construct: gene STK11
T1 sequence (Q15831 1-433): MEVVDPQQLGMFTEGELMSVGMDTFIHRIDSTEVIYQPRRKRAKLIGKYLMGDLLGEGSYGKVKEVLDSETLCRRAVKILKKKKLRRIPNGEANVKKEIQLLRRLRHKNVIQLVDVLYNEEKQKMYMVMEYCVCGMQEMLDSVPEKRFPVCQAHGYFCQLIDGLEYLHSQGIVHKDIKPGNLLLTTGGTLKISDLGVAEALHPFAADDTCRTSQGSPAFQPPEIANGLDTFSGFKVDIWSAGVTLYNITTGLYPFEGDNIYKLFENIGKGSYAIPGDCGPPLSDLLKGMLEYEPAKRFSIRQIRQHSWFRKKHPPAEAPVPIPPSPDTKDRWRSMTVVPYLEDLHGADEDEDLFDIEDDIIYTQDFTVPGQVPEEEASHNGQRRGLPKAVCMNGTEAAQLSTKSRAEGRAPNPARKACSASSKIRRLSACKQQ

LOK = molecular target: T2, LOK (Homo sapiens, UniProt O94804)
T2 construct: gene STK10

MEK1 = molecular target: T3, MEK1 (Homo sapiens, UniProt Q02750)
T3 construct: gene MAP2K1

MERTK = molecular target: T4, MERTK (Homo sapiens, UniProt Q12866)
T4 sequence (Q12866 1-999): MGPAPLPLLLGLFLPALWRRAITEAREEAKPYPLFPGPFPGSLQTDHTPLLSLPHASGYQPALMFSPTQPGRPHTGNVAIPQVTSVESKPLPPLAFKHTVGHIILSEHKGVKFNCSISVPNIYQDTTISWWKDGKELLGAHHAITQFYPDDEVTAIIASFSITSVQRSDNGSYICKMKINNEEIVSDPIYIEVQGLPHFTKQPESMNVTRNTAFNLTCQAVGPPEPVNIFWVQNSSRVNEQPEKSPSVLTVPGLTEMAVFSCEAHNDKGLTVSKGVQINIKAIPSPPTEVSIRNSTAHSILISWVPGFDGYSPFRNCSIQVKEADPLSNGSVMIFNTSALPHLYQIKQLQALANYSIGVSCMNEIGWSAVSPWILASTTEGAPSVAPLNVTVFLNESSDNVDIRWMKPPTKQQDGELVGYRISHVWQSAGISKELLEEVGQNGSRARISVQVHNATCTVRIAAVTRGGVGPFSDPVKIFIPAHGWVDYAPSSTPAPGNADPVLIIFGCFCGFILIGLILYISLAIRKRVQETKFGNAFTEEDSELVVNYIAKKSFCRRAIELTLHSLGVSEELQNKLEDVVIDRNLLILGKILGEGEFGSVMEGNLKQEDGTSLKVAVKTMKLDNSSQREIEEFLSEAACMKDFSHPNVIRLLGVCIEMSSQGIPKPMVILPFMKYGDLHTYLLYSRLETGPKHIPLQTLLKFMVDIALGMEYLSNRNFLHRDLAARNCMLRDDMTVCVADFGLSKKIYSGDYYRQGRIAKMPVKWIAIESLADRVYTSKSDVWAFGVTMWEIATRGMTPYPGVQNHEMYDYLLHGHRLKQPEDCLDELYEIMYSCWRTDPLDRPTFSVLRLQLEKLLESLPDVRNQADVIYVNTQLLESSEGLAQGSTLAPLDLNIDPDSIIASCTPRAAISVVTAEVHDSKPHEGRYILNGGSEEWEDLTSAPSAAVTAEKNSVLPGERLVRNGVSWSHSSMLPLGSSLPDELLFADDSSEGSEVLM

MLK2 = molecular target: T5, MLK2 (Homo sapiens, UniProt Q02779)
T5 construct: gene MAP3K10

WNK1 = WNK1 (Homo sapiens, UniProt Q9H4A3)
p38-beta = molecular target: T6, p38-beta (Homo sapiens, UniProt Q15759)
T6 construct: gene MAPK11

[1] = read-out: Niraparib (MK-4827) / %Ctrl @ 10000nM
[2] = read-out: Olaparib / %Ctrl @ 10000nM
[3] = read-out: Rucaparib / %Ctrl @ 10000nM, binding competition, % of control
[4] = read-out: Talazoparib (BMN 673) / %Ctrl @ 10000nM

EGFR(S752-I759del), sequence (P00533 with tags, fused parts or gaps DEL752-759): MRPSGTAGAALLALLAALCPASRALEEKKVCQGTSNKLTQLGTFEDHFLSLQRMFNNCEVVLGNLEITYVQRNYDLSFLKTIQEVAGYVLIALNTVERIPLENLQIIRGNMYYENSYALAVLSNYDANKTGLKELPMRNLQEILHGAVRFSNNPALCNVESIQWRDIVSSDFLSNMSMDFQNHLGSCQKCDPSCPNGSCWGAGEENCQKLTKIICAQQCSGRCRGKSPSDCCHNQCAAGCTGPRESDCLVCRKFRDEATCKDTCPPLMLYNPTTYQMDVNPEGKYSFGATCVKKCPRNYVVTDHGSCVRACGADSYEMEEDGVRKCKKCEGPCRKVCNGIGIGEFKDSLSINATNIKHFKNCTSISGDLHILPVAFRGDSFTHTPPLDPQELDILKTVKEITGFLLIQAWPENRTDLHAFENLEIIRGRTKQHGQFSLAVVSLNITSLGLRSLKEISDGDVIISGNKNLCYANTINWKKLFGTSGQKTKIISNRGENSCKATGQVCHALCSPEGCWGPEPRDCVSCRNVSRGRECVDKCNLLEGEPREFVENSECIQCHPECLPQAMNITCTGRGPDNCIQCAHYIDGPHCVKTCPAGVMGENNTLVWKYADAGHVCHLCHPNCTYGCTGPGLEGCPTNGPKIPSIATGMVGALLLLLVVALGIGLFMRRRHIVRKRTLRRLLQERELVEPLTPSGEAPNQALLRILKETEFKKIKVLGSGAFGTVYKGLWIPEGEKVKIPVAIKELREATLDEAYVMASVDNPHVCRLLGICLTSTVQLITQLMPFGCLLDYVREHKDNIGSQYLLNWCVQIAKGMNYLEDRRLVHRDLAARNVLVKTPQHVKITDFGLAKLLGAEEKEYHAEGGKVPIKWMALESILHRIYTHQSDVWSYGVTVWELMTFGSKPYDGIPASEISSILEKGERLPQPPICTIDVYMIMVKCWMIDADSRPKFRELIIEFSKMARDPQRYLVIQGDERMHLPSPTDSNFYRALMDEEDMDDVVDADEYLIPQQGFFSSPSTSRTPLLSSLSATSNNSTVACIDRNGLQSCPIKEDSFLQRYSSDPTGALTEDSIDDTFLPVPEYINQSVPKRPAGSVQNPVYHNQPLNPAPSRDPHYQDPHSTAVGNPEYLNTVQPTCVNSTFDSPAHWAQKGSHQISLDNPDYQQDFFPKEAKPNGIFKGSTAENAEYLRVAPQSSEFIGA
T2 sequence (O94804 whole entry): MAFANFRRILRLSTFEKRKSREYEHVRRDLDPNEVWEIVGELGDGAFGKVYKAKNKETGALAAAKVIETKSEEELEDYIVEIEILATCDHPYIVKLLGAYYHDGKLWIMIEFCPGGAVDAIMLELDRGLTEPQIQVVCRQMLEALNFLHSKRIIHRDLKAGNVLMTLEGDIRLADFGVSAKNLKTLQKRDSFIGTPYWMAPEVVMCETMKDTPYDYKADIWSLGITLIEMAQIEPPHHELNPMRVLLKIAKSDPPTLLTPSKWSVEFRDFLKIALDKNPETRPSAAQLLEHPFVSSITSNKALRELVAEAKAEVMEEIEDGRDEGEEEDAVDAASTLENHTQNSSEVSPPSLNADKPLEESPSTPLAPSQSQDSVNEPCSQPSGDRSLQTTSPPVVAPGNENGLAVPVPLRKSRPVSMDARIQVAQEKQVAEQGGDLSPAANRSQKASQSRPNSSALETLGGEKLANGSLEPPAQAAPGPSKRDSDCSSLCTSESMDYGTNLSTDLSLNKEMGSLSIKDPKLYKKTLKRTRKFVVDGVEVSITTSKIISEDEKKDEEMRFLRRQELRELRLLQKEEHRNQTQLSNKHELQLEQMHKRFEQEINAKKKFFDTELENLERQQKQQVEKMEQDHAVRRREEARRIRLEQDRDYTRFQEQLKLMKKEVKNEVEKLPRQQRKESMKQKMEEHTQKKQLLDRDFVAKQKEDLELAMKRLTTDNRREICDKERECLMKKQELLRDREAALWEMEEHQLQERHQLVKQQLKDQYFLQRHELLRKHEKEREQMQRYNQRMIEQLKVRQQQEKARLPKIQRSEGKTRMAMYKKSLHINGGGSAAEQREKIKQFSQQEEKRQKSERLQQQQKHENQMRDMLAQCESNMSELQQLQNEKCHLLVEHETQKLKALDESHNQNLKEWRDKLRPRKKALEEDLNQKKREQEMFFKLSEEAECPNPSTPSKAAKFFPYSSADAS
T5 sequence (Q02779 whole entry): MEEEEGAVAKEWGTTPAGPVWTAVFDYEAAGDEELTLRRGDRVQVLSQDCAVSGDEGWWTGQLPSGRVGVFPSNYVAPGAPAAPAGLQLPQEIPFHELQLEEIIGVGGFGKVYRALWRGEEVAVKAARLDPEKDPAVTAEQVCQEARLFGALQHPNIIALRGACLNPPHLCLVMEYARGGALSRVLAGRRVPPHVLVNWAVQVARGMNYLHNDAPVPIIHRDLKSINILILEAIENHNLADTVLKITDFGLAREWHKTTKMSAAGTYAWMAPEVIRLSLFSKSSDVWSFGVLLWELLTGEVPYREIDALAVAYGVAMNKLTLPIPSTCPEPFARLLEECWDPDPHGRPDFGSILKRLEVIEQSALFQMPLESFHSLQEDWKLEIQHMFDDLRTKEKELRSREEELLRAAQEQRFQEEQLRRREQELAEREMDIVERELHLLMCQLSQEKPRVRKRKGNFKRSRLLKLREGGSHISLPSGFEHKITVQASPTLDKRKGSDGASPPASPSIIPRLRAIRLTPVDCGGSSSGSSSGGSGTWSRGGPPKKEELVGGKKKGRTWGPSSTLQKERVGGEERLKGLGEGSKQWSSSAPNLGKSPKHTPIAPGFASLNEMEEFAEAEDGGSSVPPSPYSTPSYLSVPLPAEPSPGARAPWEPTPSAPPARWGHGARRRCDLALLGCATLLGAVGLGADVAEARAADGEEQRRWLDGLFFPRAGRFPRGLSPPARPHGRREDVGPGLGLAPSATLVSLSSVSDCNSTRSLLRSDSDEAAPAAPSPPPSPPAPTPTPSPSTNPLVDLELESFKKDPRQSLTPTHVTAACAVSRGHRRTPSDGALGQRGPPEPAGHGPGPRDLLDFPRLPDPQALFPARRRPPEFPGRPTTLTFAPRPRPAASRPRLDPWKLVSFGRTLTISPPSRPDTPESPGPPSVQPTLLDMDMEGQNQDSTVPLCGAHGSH
DDR1, sequence (Q08345 whole entry): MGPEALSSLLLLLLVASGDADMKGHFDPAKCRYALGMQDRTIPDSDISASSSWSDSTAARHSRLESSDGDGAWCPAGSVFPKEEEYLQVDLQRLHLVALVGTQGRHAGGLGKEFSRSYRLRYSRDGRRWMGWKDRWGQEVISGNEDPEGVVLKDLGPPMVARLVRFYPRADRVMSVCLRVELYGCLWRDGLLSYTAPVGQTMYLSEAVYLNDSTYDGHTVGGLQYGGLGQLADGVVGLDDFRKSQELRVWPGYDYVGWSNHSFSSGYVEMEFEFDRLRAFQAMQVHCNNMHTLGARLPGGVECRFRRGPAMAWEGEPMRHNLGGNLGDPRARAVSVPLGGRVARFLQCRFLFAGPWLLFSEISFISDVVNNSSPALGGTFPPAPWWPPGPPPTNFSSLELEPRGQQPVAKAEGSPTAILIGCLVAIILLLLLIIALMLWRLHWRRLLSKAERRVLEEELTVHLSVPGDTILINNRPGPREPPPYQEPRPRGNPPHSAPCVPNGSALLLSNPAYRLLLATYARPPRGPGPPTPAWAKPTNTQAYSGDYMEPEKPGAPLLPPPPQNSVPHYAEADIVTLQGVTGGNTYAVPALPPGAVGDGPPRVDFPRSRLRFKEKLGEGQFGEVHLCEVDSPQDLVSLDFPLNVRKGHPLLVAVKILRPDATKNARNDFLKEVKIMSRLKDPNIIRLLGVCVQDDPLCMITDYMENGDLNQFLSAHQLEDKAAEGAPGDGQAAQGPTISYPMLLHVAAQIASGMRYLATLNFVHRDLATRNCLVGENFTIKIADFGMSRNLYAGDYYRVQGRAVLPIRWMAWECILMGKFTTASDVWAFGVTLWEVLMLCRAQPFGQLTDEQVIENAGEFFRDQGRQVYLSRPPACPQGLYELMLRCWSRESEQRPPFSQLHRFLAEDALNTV
T3 sequence (Q02750 whole entry): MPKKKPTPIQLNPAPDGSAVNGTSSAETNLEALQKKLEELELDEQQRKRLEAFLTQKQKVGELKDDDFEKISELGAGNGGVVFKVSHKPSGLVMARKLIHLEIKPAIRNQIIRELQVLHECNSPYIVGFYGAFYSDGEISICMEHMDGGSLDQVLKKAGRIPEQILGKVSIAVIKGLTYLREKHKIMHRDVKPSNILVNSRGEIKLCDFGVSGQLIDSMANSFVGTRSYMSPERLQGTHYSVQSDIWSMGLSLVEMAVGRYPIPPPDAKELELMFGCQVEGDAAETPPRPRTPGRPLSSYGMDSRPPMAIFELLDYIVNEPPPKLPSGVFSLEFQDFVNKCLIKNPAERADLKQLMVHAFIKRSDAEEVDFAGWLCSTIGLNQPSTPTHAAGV
T6 sequence (Q15759 whole entry): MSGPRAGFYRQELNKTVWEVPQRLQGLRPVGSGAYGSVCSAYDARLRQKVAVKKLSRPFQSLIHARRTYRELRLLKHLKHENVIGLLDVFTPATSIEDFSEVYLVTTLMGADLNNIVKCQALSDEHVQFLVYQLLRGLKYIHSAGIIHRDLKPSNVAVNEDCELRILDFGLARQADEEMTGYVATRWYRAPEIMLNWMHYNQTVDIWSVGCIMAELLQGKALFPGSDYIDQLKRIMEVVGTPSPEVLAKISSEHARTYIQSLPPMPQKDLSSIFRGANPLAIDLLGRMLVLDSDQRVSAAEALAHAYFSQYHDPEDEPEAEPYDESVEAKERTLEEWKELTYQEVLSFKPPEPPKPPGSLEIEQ

Compound `NC(=O)c1cccc2cn(-c3ccc([C@@H]4CCCNC4)cc3)nc12` [Niraparib] has a percent of control binding at 10 µM (AKT3; [1]) of 97%, a percent of control binding at 10 µM (CIT; [1]) of 10% and a percent of control binding at 10 µM (DDR1; [1]) of 85%. For the same compound, the percent of control binding at 10 µM (EGFR(S752-I759del); [1]) was 71%, the percent of control binding at 10 µM (LKB1; [1]) was 100% and the percent of control binding at 10 µM (LOK; [1]) was 86%. The percent of control binding at 10 µM (MEK1; [1]) was 79%, the percent of control binding at 10 µM (MERTK; [1]) was 99% and the percent of control binding at 10 µM (MLK2; [1]) was 69%. It also gave a percent of control binding at 10 µM (WNK1; [1]) of 100% and a percent of control binding at 10 µM (p38-beta; [1]) of 99%.
With `O=C(c1cc(Cc2n[nH]c(=O)c3ccccc23)ccc1F)N1CCN(C(=O)C2CC2)CC1` [Olaparib] the percent of control binding at 10 µM (AKT3; [2]) was 100%, the percent of control binding at 10 µM (CIT; [2]) was 87% and the percent of control binding at 10 µM (DDR1; [2]) was 77%. The percent of control binding at 10 µM (EGFR(S752-I759del); [2]) was 84%, the percent of control binding at 10 µM (LKB1; [2]) was 90% and the percent of control binding at 10 µM (LOK; [2]) was 96%. The percent of control binding at 10 µM (MEK1; [2]) was 79%, the percent of control binding at 10 µM (MERTK; [2]) was 83% and the percent of control binding at 10 µM (MLK2; [2]) was 97%. For the same compound, the percent of control binding at 10 µM (WNK1; [2]) was 76% and the percent of control binding at 10 µM (p38-beta; [2]) was 90%.
With `CNCc1ccc(-c2[nH]c3cc(F)cc4c3c2CCNC4=O)cc1` [Rucaparib] the percent of control binding at 10 µM (AKT3; [3]) was 100%, the percent of control binding at 10 µM (CIT; [3]) was 4.8% and the percent of control binding at 10 µM (DDR1; [3]) was 96%. For the same compound, the percent of control binding at 10 µM (EGFR(S752-I759del); [3]) was 89%, the percent of control binding at 10 µM (LKB1; [3]) was 91% and the percent of control binding at 10 µM (LOK; [3]) was 100%. It also gave a percent of control binding at 10 µM (MEK1; [3]) of 69%, a percent of control binding at 10 µM (MERTK; [3]) of 64% and a percent of control binding at 10 µM (MLK2; [3]) of 63%. It also gave a percent of control binding at 10 µM (WNK1; [3]) of 81% and a percent of control binding at 10 µM (p38-beta; [3]) of 93%.
Compound `Cn1ncnc1[C@H]1c2n[nH]c(=O)c3cc(F)cc(c23)N[C@@H]1c1ccc(F)cc1` [Talazoparib] has a percent of control binding at 10 µM (AKT3; [4]) of 88%, a percent of control binding at 10 µM (CIT; [4]) of 98% and a percent of control binding at 10 µM (DDR1; [4]) of 84%. It also gave a percent of control binding at 10 µM (EGFR(S752-I759del); [4]) of 100%, a percent of control binding at 10 µM (LKB1; [4]) of 93% and a percent of control binding at 10 µM (LOK; [4]) of 100%. The percent of control binding at 10 µM (MEK1; [4]) was 67%, the percent of control binding at 10 µM (MERTK; [4]) was 98% and the percent of control binding at 10 µM (MLK2; [4]) was 70%. The percent of control binding at 10 µM (WNK1; [4]) was 100% and the percent of control binding at 10 µM (p38-beta; [4]) was 86%.
